Test results as given in PubChem BioAssay (NCI).
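At the GI50, growth is halved. TGI: total growth inhibition.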

Assays:
Experiment in all cases: NCI anticancer screen, dose series, 384-well format
IGROV1 ovarian = tested on: IGROV1 ovarian
BT-549 breast = tested on: BT-549 breast
SK-MEL-5 melanoma = tested on: SK-MEL-5 melanoma
SF-539 CNS = tested on: SF-539 CNS
PC-3 prostate = tested on: PC-3 prostate
SNB-19 CNS = tested on: SNB-19 CNS
K-562 leukemia = tested on: K-562 leukemia
OVCAR-3 ovarian = tested on: OVCAR-3 ovarian
SF-268 CNS = tested on: SF-268 CNS
HL-60(TB) leukemia = tested on: HL-60(TB) leukemia
MCF7 breast = tested on: MCF7 breast
MALME-3M melanoma = tested on: MALME-3M melanoma
MDA-MB-468 breast = tested on: MDA-MB-468 breast
786-0 renal = tested on: 786-0 renal
OVCAR-5 ovarian = tested on: OVCAR-5 ovarian
SW-620 colon = tested on: SW-620 colon
DU-145 prostate = tested on: DU-145 prostate
SN12C renal = tested on: SN12C renal
NCI-H460 NSCLC = tested on: NCI-H460 NSCLC
HCT-116 colon = tested on: HCT-116 colon
SK-OV-3 ovarian = tested on: SK-OV-3 ovarian
SK-MEL-2 melanoma = tested on: SK-MEL-2 melanoma
NCI-H226 lung = tested on: NCI-H226 lung
U251 glioblastoma = tested on: U251 glioblastoma
MDA-MB-231 breast = tested on: MDA-MB-231 breast
A498 renal = tested on: A498 renal
OVCAR-4 ovarian = tested on: OVCAR-4 ovarian
OVCAR-8 ovarian = tested on: OVCAR-8 ovarian
UO-31 renal = tested on: UO-31 renal
COLO 205 colon = tested on: COLO 205 colon
HCC-2998 colon = tested on: HCC-2998 colon
KM12 colon = tested on: KM12 colon
RPMI-8226 leukemia = tested on: RPMI-8226 leukemia
EKVX NSCLC = tested on: EKVX NSCLC
NCI-H322M lung = tested on: NCI-H322M lung
SR leukemia = tested on: SR leukemia
LOX IMVI melanoma = tested on: LOX IMVI melanoma
SF-295 CNS = tested on: SF-295 CNS
HT29 colon = tested on: HT29 colon
A549 NSCLC = tested on: A549 NSCLC
UACC-257 melanoma = tested on: UACC-257 melanoma
HS 578T breast = tested on: HS 578T breast
RXF 393 renal = tested on: RXF 393 renal
HOP-92 NSCLC = tested on: HOP-92 NSCLC
HOP-62 NSCLC = tested on: HOP-62 NSCLC
CCRF-CEM leukemia = tested on: CCRF-CEM leukemia
M14 melanoma = tested on: M14 melanoma

Cc1ccc2c(Nc3cccc(Cl)c3F)ncc(NC(=O)c3csc4c(N)ncnc34)c2c1
GI50 (IGROV1 ovarian): 1.6 µM
TGI (IGROV1 ovarian): 97.9 µM
GI50 (BT-549 breast): 22.8 µM
TGI (BT-549 breast): > 100 µM
GI50 (SK-MEL-5 melanoma): 0.0518 µM
TGI (SK-MEL-5 melanoma): 23.1 µM
GI50 (SF-539 CNS): 29.1 µM
TGI (SF-539 CNS): > 100 µM
GI50 (PC-3 prostate): 57.3 µM
TGI (PC-3 prostate): > 100 µM
GI50 (SNB-19 CNS): 55 µM
TGI (SNB-19 CNS): > 100 µM
GI50 (K-562 leukemia): 0.592 µM
TGI (K-562 leukemia): > 100 µM
GI50 (OVCAR-3 ovarian): 22.2 µM
TGI (OVCAR-3 ovarian): 84.7 µM
GI50 (SF-268 CNS): 21.9 µM
TGI (SF-268 CNS): 73.7 µM
GI50 (HL-60(TB) leukemia): 0.0159 µM
TGI (HL-60(TB) leukemia): 12.8 µM
GI50 (MCF7 breast): 7.47 µM
TGI (MCF7 breast): > 100 µM
GI50 (MALME-3M melanoma): 0.0124 µM
TGI (MALME-3M melanoma): 0.0436 µM
GI50 (MDA-MB-468 breast): 18.3 µM
TGI (MDA-MB-468 breast): 52.4 µM
GI50 ([…]-0 renal): 22.2 µM
TGI (786-0 renal): > 100 µM
GI50 (OVCAR-5 ovarian): 0.178 µM
TGI (OVCAR-5 ovarian): > 100 µM
GI50 (SW-620 colon): 0.721 µM
TGI (SW-620 colon): > 100 µM
GI50 (DU-145 prostate): 22 µM
TGI (DU-145 prostate): > 100 µM
GI50 (SN12C renal): 8.16 µM
TGI (SN12C renal): > 100 µM
GI50 (NCI-H460 NSCLC): 13 µM
TGI (NCI-H460 NSCLC): > 100 µM
GI50 (HCT-116 colon): 0.162 µM
TGI (HCT-116 colon): 19.8 µM
GI50 (SK-OV-3 ovarian): 27 µM
TGI (SK-OV-3 ovarian): > 100 µM
GI50 (SK-MEL-2 melanoma): 0.0346 µM
TGI (SK-MEL-2 melanoma): 0.148 µM
GI50 (NCI-H226 lung): 0.978 µM
TGI (NCI-H226 lung): > 100 µM
GI50 (U251 glioblastoma): 22.3 µM
TGI (U251 glioblastoma): > 100 µM
GI50 (MDA-MB-231 breast): 0.0195 µM
TGI (MDA-MB-231 breast): 16.3 µM
GI50 (A498 renal): 3.07 µM
TGI (A498 renal): 43 µM
GI50 (OVCAR-4 ovarian): 44.6 µM
TGI (OVCAR-4 ovarian): > 100 µM
GI50 (OVCAR-8 ovarian): 13.2 µM
TGI (OVCAR-8 ovarian): 43.1 µM
GI50 (UO-31 renal): 0.258 µM
TGI (UO-31 renal): > 100 µM
GI50 (COLO 205 colon): 0.0242 µM
TGI (COLO 205 colon): 19.3 µM
GI50 (HCC-2998 colon): 0.115 µM
TGI (HCC-2998 colon): 0.537 µM
GI50 (KM12 colon): 0.54 µM
TGI (KM12 colon): 99.4 µM
GI50 (RPMI-8226 leukemia): 1.6 µM
TGI (RPMI-8226 leukemia): 18.5 µM
GI50 (EKVX NSCLC): 10.8 µM
TGI (EKVX NSCLC): > 100 µM
GI50 (NCI-H322M lung): 17.4 µM
TGI (NCI-H322M lung): > 100 µM
GI50 (SR leukemia): 15.1 µM
TGI (SR leukemia): 82.8 µM
GI50 (LOX IMVI melanoma): 0.0418 µM
TGI (LOX IMVI melanoma): 1.18 µM
GI50 (SF-295 CNS): 93.7 µM
TGI (SF-295 CNS): > 100 µM
GI50 (HT29 colon): 0.127 µM
TGI (HT29 colon): > 100 µM
GI50 (A549 NSCLC): 17.5 µM
TGI (A549 NSCLC): > 100 µM
GI50 (UACC-257 melanoma): 0.0668 µM
TGI (UACC-257 melanoma): 0.569 µM
GI50 (HS 578T breast): 0.931 µM
TGI (HS 578T breast): 63.4 µM
GI50 (RXF 393 renal): 0.968 µM
TGI (RXF 393 renal): 95.7 µM
GI50 (HOP-92 NSCLC): 0.542 µM
TGI (HOP-92 NSCLC): 7.97 µM
GI50 (HOP-62 NSCLC): 11.5 µM
TGI (HOP-62 NSCLC): > 100 µM
GI50 (CCRF-CEM leukemia): 15 µM
TGI (CCRF-CEM leukemia): 34.5 µM
GI50 (M14 melanoma): 0.0224 µM
TGI (M14 melanoma): 0.186 µM
